According to ChEMBL document CHEMBL1201862, “PubChem BioAssay data set” (2004):
Active and inactive are the calls of the source.

Key:
[1] = Luminescence Cell-Based Dose Response HTS to Identify Inhibitors of 5'UTR Stem-Loop Driven Prion Protein mRNA Translation in H4 Neuroglioblastoma Cells. [Related pubchem assays: 1827 (Project Summary), 1813 (Primary HTS)]; format: functional
[2] = target: Dual specificity tyrosine-phosphorylation-regulated kinase 1A (Rattus norvegicus, UniProt Q63470); format: biochemical, Homo sapiens
[3] = test system: HEK293; test: cells; format: functional, cell-based; settings: Homo sapiens;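 further: HEK-293-T cells carrying an NF-kB luciferase reporter; cells exposed to compound overnight before the viability read; potency for loss of cell viability meaning cytotoxicity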
[4] = target: Phospholipase A2 (Homo sapiens, UniProt P04054); format: functional;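 further: confirmatory dose-response counterscreen on phospholipase A2, testing hits that came from an ultra-high-throughput screen for ATG4B inhibitors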
[5] = target: SRSF protein kinase 1 (Homo sapiens, UniProt Q96SB4); format: functional;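 further: measured as one member of a kinome-wide kinase profiling panel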
[6] = target: Platelet-derived growth factor receptor alpha (Homo sapiens, UniProt P16234); test: Navigating the Kinome. Panel member name: PDGFRA; format: functional
[7] = target: Cyclin-dependent kinase 8 (Homo sapiens, UniProt P49336); test: Navigating the Kinome. Panel member name: CDK8; format: functional
[8] = target: Calcium/calmodulin-dependent protein kinase type II subunit alpha (Homo sapiens, UniProt Q9UQM7); test: Navigating the Kinome. Panel member name: CAMK2A; format: functional
[9] = target: Mitogen-activated protein kinase 12 (Homo sapiens, UniProt P53778); format: functional;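 further: measured as one member of a kinome-wide kinase profiling panel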
Sequence of Mitogen-activated protein kinase 12 (P53778 whole entry): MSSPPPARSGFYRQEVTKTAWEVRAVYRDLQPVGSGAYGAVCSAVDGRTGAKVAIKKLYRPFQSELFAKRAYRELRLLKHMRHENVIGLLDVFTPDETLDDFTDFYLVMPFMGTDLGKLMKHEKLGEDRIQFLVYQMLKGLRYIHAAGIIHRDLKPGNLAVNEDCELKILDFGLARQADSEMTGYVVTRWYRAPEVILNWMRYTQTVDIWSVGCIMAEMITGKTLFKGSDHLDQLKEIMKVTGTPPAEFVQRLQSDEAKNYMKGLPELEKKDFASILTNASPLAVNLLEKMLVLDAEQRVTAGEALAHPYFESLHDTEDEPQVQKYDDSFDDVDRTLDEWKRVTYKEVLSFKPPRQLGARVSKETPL

[10] = target: Insulin-like growth factor 1 receptor (Homo sapiens, UniProt P08069); test: Navigating the Kinome. Panel member name: IGF1R; format: functional
[11] = target: Aurora kinase A (Homo sapiens, UniProt O14965); format: functional;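 further: value from the Navigating the Kinome kinase panel profiling, panel entry STK6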
[12] = target: Dual specificity tyrosine-phosphorylation-regulated kinase 4 (Homo sapiens, UniProt Q9NR20); format: functional
[13] = target: Dual specificity mitogen-activated protein kinase kinase 2 (Homo sapiens, UniProt P36507); test: Navigating the Kinome. Panel member name: MAP2K2; format: functional
Sequence of Dual specificity mitogen-activated protein kinase kinase 2 (P36507 whole entry): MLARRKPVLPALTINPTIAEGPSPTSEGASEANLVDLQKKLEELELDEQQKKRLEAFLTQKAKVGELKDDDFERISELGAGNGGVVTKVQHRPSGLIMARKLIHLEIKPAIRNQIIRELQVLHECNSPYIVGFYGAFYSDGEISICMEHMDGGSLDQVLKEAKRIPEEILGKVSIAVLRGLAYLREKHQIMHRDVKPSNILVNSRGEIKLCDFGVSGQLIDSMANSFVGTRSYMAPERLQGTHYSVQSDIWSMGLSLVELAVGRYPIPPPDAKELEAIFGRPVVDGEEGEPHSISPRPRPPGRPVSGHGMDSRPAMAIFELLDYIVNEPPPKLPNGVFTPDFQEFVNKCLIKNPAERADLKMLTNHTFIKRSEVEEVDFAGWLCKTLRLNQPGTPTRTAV

[14] = target: Tyrosine-protein kinase Srms (Homo sapiens, UniProt Q9H3Y6); format: functional;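 further: SRMS measured as one member of a kinome-wide kinase profiling panel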
[15] = target: Tyrosine-protein kinase Fyn (Homo sapiens, UniProt P06241); format: functional
Sequence of Tyrosine-protein kinase Fyn (P06241 whole entry): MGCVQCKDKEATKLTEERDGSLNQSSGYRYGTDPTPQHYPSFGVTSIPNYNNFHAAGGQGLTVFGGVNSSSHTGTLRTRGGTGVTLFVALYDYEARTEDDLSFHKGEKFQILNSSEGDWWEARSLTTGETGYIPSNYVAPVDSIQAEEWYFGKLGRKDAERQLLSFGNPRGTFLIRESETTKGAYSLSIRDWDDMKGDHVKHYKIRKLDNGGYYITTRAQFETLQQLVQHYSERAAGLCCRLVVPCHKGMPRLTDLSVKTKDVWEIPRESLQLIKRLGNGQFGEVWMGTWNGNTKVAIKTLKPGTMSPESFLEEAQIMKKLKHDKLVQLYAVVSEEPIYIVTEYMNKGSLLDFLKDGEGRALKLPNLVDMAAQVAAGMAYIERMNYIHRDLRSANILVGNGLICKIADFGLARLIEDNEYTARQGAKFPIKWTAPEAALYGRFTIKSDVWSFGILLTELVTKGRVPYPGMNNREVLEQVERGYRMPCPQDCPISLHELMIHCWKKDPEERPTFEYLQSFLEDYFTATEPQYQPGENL

[16] = target: Mitogen-activated protein kinase 13 (Homo sapiens, UniProt O15264); format: functional
Sequence of Mitogen-activated protein kinase 13 (O15264 whole entry): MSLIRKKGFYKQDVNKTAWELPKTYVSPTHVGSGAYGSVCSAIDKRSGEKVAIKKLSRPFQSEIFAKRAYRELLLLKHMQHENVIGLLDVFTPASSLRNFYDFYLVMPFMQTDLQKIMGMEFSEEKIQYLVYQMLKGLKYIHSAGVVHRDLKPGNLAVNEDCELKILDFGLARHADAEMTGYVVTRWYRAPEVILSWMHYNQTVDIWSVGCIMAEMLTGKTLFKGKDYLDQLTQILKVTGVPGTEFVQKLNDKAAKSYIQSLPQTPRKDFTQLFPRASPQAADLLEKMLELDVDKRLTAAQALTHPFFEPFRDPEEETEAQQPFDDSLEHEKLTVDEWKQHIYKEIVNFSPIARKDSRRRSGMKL

[17] = target: Serine/threonine-protein kinase Chk2 (Homo sapiens, UniProt O96017); format: functional;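 further: CHEK2 entry within a kinome-wide screening panel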
[18] = target: Dual specificity tyrosine-phosphorylation-regulated kinase 3 (Homo sapiens, UniProt O43781); format: functional;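 further: measured as one member of a broad kinase panel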
Sequence of Dual specificity tyrosine-phosphorylation-regulated kinase 3 (O43781 whole entry): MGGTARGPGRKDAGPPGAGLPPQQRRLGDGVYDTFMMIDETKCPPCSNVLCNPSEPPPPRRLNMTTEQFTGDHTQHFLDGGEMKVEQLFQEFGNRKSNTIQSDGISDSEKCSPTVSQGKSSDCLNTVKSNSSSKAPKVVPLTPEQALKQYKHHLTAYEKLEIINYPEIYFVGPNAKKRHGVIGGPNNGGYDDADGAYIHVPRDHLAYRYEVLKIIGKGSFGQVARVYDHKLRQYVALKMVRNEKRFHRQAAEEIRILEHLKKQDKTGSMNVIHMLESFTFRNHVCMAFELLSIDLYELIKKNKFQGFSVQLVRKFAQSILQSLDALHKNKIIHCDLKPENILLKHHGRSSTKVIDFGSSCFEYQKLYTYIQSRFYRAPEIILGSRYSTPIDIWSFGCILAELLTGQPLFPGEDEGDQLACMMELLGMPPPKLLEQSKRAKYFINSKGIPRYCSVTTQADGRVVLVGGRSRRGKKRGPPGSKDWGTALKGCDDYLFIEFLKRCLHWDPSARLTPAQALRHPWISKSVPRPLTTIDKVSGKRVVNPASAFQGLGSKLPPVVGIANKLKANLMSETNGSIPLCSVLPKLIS

[19] = target: Calcium/calmodulin-dependent protein kinase type 1 (Homo sapiens, UniProt Q14012); format: functional
[20] = target: Dual specificity protein kinase CLK2 (Homo sapiens, UniProt P49760); format: functional
Sequence of Dual specificity protein kinase CLK2 (P49760 whole entry): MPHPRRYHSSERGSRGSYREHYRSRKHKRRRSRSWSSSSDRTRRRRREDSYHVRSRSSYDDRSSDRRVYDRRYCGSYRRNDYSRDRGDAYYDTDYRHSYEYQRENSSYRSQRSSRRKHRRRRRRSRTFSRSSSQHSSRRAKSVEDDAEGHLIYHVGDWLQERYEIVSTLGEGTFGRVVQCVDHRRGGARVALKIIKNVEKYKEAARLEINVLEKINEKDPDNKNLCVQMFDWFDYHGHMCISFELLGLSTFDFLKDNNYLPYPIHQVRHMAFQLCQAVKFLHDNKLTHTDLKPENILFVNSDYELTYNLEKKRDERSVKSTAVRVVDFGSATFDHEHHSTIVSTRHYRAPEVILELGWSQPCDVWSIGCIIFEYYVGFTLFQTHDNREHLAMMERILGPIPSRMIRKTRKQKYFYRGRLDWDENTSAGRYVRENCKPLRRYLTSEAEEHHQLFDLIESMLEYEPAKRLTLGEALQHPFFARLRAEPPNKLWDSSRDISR

[21] = target: Testis-specific serine/threonine-protein kinase 2 (Homo sapiens, UniProt Q96PF2); format: functional;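 further: part of the Navigating the Kinome panel, target entry STK22B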
[22] = target: RAC-alpha serine/threonine-protein kinase (Homo sapiens, UniProt P31749); format: functional;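 further: AKT1 affinity measured as one member of a kinome-wide kinase profiling panel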
[23] = target: Homeodomain-interacting protein kinase 4 (Homo sapiens, UniProt Q8NE63); format: functional
[24] = target: Megakaryocyte-associated tyrosine-protein kinase (Homo sapiens, UniProt P42679); format: functional;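 further: affinity measured as one member of a kinase panel (Navigating the Kinome) against MATK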
Sequence of Megakaryocyte-associated tyrosine-protein kinase (P42679 whole entry): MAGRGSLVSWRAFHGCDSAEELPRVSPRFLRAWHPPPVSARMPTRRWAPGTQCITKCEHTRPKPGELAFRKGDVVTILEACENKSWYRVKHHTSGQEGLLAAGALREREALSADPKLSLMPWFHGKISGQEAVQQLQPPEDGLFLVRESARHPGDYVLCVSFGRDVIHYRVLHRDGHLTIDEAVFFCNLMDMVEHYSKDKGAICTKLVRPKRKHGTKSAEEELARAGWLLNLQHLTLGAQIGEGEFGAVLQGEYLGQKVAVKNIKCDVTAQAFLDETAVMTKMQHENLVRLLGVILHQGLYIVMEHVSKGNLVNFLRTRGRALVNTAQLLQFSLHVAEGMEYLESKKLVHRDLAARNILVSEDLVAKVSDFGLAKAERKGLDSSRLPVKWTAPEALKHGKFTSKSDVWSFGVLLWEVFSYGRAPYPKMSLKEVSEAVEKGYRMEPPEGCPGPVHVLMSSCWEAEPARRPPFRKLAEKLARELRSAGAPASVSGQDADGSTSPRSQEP

[25] = target: Leucine-rich repeat serine/threonine-protein kinase 2 (Homo sapiens, UniProt Q5S007); format: functional;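 further: value from a broad kinome-wide panel profiling study in which LRRK2 was one of the kinases tested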
[26] = target: Dual specificity tyrosine-phosphorylation-regulated kinase 1B (Homo sapiens, UniProt Q9Y463); test: Navigating the Kinome. Panel member name: DYRK1B; format: functional
[27] = target: Tyrosine-protein kinase Fer (Homo sapiens, UniProt P16591); format: functional;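 further: FER tested as one member of a kinome panel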
[28] = target: Serine/threonine-protein kinase D2 (Homo sapiens, UniProt Q9BZL6); format: functional;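 further: measured against PRKD2 as one member of a kinome-wide kinase profiling panel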
Sequence of Serine/threonine-protein kinase D2 (Q9BZL6 whole entry): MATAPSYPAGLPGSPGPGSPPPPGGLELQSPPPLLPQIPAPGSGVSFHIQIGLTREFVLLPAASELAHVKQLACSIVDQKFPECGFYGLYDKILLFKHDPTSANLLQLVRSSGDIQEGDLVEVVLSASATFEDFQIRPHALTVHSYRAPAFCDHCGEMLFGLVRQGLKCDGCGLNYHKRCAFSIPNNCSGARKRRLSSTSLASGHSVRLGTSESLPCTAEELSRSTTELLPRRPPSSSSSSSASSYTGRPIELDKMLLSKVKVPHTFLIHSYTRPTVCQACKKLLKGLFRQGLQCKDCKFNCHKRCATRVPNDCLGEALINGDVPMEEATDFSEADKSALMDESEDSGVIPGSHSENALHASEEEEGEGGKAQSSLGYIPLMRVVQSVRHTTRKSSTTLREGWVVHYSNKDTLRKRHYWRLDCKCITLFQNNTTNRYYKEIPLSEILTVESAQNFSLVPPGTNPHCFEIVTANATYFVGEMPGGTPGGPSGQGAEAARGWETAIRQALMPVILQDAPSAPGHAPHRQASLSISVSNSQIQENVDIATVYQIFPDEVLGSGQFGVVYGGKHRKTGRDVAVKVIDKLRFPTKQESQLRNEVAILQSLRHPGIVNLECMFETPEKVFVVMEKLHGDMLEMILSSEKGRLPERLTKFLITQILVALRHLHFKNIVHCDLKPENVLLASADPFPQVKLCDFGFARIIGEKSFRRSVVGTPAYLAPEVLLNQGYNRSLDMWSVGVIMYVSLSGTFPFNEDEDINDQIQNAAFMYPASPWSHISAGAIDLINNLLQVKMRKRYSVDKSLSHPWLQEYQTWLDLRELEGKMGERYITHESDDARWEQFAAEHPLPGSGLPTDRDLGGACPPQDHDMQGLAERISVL

[29] = target: MAP/microtubule affinity-regulating kinase 3 (Homo sapiens, UniProt P27448); format: functional;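 further: MARK3 affinity measured as one member of a kinome panel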
Sequence of MAP/microtubule affinity-regulating kinase 3 (P27448 whole entry): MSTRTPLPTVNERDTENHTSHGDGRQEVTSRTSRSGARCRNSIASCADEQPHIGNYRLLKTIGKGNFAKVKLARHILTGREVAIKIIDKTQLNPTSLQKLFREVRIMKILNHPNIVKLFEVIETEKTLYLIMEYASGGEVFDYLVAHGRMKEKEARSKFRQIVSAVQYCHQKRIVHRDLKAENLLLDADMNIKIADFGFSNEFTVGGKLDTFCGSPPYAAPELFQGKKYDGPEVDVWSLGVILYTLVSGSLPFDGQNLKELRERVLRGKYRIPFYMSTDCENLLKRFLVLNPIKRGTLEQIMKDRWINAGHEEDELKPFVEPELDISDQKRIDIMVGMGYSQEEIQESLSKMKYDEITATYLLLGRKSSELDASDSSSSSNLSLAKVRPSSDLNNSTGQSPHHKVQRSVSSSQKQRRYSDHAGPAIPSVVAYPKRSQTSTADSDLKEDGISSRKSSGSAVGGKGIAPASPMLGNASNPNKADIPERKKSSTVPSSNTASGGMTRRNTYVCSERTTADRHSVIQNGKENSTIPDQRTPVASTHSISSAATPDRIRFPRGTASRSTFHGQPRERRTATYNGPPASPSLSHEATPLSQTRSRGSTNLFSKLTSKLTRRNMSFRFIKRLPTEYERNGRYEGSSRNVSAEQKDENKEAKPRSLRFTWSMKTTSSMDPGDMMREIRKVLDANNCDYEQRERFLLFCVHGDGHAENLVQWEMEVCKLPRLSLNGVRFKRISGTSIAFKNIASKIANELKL

[30] = Potency on glucagon-like peptide 1 release, dose-response in NCI-H716 cell line, half maximal inhibitory concentration (AID 1117344); format: functional, cell-based
[31] = NIH-3T3 fibroblast cytotoxicity, dose response, cytotoxicity control, cell-based, fluorescence, Alamar Blue, secondary assay (AID 2327); format: functional;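 further: NIH-3T3 mouse fibroblasts cultured with fluconazole at 8 µg/mL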
[32] = target: 1-acylglycerol-3-phosphate O-acyltransferase ABHD5/Perilipin-5 (Homo sapiens, UniProt Q00G26+Q8WTS1); test: Luminescence-based biochemical high throughput dose response assay for inhibitors of the interaction of the lipase co-activator protein, abhydrolase domain containing 5 (ABHD5) with perilipin-5 (MLDP; PLIN5) (2K validation set). [Related pubchem assays (depositor defined):AID493035, AID493241]
[33] = viability loss of HPDE-C7K cells – cell-based, fluorescence, HTS, primary screen (AID 431); format: functional; settings: Homo sapiens
[34] = Reduced DLD-1 viability, concentration-response, CellTiter-Glo luminescence (AID 1117352); format: functional
[35] = target: T1, Leucine aminopeptidase (Plasmodium falciparum 3D7, UniProt Q8IL11); test: P. falciparum M17LAP inhibitors, primary screen, biochemical, fluorogenic H-Leu-NHMec substrate, 1536-well (AID 1619); format: functional
T1 sequence (Q8IL11 whole entry): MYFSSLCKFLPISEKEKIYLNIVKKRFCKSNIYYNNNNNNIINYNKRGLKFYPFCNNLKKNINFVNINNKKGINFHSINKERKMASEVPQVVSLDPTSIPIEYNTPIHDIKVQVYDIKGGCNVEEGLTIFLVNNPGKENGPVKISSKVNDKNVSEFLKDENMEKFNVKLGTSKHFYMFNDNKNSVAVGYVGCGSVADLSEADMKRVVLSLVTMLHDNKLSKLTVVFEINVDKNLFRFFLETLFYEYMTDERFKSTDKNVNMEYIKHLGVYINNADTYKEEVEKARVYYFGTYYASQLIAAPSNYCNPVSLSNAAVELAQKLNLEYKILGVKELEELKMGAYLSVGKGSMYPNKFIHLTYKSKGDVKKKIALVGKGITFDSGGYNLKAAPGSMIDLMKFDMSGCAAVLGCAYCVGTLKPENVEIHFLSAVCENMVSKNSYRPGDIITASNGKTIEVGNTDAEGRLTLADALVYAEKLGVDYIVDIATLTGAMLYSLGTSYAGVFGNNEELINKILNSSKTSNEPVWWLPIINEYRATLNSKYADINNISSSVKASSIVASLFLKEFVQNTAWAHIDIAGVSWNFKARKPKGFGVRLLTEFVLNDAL

[36] = SNU-C1 cell viability reduction, dose response, CellTiter-Glo luminescence (AID 1117323); format: functional, cell-based
[37] = RKO cell viability reduction, dose response, CellTiter-Glo luminescence (AID 1117322); format: functional

Structure (SMILES): O=C1C=C(N2CCOCC2)c2ccccc2C1=O
- EC50 [1]: > 120 µM (not active)
- AC50 [2]: 5.14 µM (active)
- IC50 [3]: 13.6 µM (active)
- IC50 [4]: > 80 µM (inactive)

Structure (SMILES): N#Cc1ccc2[nH]c(O)c(-c3ccc(CN4CCOCC4)cn3)c2c1 [AZD-1080]
- Ki [5]: > 7.94 µM (inactive)
- Ki [6]: > 2.51 µM (inactive)
- Ki [7]: > 3.98 µM (inactive)
- Ki [8]: 6.31 µM (active)
- Ki [9]: > 6.31 µM (inactive)
- Ki [10]: > 2.51 µM (inactive)
- Ki [11]: > 1.58 µM (inactive)
- Ki [12]: > 7.94 µM (inactive)
- Ki [13]: > 3.98 µM (inactive)
- Ki [14]: > 1.58 µM (inactive)
- Ki [15]: > 3.98 µM (inactive)
- Ki [16]: > 7.94 µM (inactive)
- Ki [17]: > 1.58 µM (inactive)
- Ki [18]: 1 µM (active)
- Ki [19]: > 6.31 µM (inactive)
- Ki [20]: > 5.01 µM (inactive)
- Ki [21]: > 1.58 µM (inactive)
- Ki [22]: > 7.94 µM (inactive)
- Ki [23]: > 7.94 µM (inactive)
- Ki [24]: > 2 µM (inactive)
- Ki [25]: > 2.51 µM (inactive)
- Ki [26]: 1 µM (active)
- Ki [27]: > 1.58 µM (inactive)
- Ki [28]: 7.94 µM (active)
- Ki [29]: > 6.31 µM (inactive)

Structure (SMILES): CCc1oc2ccccc2c1C(=O)c1cc(Br)c(O)c(Br)c1 [BENZBROMARONE]
- IC50 [30]: > 40 µM (inactive)
- EC50 [31]: > 160 µM (inactive)
- IC50 [32]: 18.8 µM (inactive)
- EC50 [33]: 5.29 µM (active)
- IC50 [34]: 268 nM (active)
- IC50 [35]: 81.9 µM (active)
- IC50 [36]: 105 nM (active)
- IC50 [37]: 131 nM (active)
